Laboratory results taken from patent publication US20250312362A1, “INHIBITORS OF MsbA AS ANTIBIOTICS, PHARMACEUTICAL COMPOSITIONS, AND USES THEREOF” (Merck Sharp & Dohme LLC, priority 2022, published 2025).
Converted amounts (≈) assume the structure as drawn.

The compounds below were run on various strains of bacteria (assay: Antimicrobial potency: bacterial growth inhibition by OD600 (Antibacterial assay 1)). Details: read-out: Antibacterial assay 1 (MITC95).
Type: cell-based
Procedure: The concentrations of compounds required to inhibit the growth of various strains of bacteria were determined in an assay that assessed bacterial growth by measuring optical density at 600 nm (OD600). Test articles were dissolved in 100% DMSO and serially diluted two-fold from their maximal concentration in 100% DMSO. Forty-nine μl of bacterial inoculum (at approx. 2×10^5 cfu/mL in CAMHB) were put into wells of an assay plate. One μl of compound or DMSO was transferred from the source plate to the assay plate. The completed assay plates were then incubated at 35±2 degC. for 18-22 h. Bacterial growth was measured by reading OD600 on a spectrophotometer. Data analysis calculates the lowest concentration of compound which results in ≥95% growth inhibition (minimum inhibitory threshold concentration 95%, MITC95).

Row | Structure (SMILES) | MIC [µM]
1 | CCCCc1ccc(S(=O)(=O)Nc2ccc(NC(=O)CCC(=O)Nc3ccc(NS(=O)(=O)c4ccc(CCCC)cc4)c(P(=O)(O)O)c3)cc2C(=O)O)cc1 [Compound 1, 2-((4-butylphenyl)sulfonamido)-5-(4-((4-((4-butylphenyl)sulfonamido)-3-phosphonophenyl)amino)-4-oxobutanamido)benzoic acid] | 1.56 (≈ 1.27 µg/mL)
2 | CCCCc1ccc(S(=O)(=O)Nc2ccc(NC(=O)CCC(=O)Nc3ccc(NS(=O)(=O)c4ccc(CCCC)cc4)c(C(=O)O)c3)cc2C(=O)O)cc1 [Compound 2, 5,5′-(succinylbis(azanediyl))bis(2-((4-butylphenyl)sulfonamido)benzoic acid)] | 0.0568 (≈ 0.0442 µg/mL)
3 | CCCCc1ccc(S(=O)(=O)Nc2ccc(NC(=O)CCC(=O)Nc3cnc(NS(=O)(=O)c4ccc(CCCC)cc4)c(C(=O)O)c3)cc2C(=O)O)cc1 [Compound 3, 2-((4-butylphenyl)sulfonamido)-5-(4-((4-((4-butylphenyl)sulfonamido)-3-carboxyphenyl)amino)-4-oxobutanamido)nicotinic acid] | 0.621 (≈ 0.484 µg/mL)
4 | O=C(CCCOc1ccc(NS(=O)(=O)c2ccc(-c3ccc(Cl)cc3)s2)c(C(=O)O)c1)Nc1ccc(NS(=O)(=O)c2ccc(-c3ccc(Cl)cc3)s2)c(C(=O)O)c1 [Compound 4, 5-(4-(3-Carboxy-4-((5-(4-chlorophenyl)thiophene)-2-sulfonamido)phenoxy)-butanamido)-2-((5-(4-chlorophenyl)thiophene)-2-sulfonamido)benzoic acid] | 0.0122 (≈ 0.0108 µg/mL)
5 | O=C(CCCOc1ccc(NS(=O)(=O)c2cnn(-c3ccc(Cl)cc3)c2)c(C(=O)O)c1)Nc1ccc(NS(=O)(=O)c2ccc(-c3cc(Cl)cc(Cl)c3)cc2)c(C(=O)O)c1 [Compound 5] | 0.0122 (≈ 0.011 µg/mL)
6 | O=C(CCCOc1ccc(NS(=O)(=O)c2cnn(-c3ccc(Cl)cc3)c2)c(C(=O)O)c1)Nc1ccc(NS(=O)(=O)c2ccc(-c3ccc(F)cc3)cc2)c(C(=O)O)c1 [Compound 6] | 0.0173 (≈ 0.0147 µg/mL)
7 | Cc1c(S(=O)(=O)Nc2ccc(NC(=O)CCCOc3ccc(NS(=O)(=O)c4cnn(-c5ccc(Cl)cc5)c4)c(C(=O)O)c3)cc2C(=O)O)sc2ccc(Cl)cc12 [Compound 7] | 0.0122 (≈ 0.0105 µg/mL)
8 | CCCCc1ccc(S(=O)(=O)Nc2ccc(NC(=O)CCCOc3ccc(NS(=O)(=O)c4sc(-c5ccccc5)nc4C)c(C(=O)O)c3)cc2C(=O)O)cc1 [Compound 8] | 0.0173 (≈ 0.014 µg/mL)
9 | O=C(CCCOc1ccc(NS(=O)(=O)c2ccc(Oc3ccc(Cl)cc3)nc2)c(C(=O)O)c1)Nc1ccc(NS(=O)(=O)c2ccc(Oc3ccc(Cl)cc3)nc2)c(C(=O)O)c1 [Compound 9] | 0.0122 (≈ 0.0111 µg/mL)
10 | CCCCc1ccc(S(=O)(=O)Nc2ccc(OCCCC(=O)Nc3ccc(NS(=O)(=O)c4ccc(CCCC)cc4)c(C(=O)O)n3)cc2C(=O)O)cc1 [Compound 10] | 0.985 (≈ 0.755 µg/mL)
11 | O=C(CCCOc1ccc(NS(=O)(=O)c2cnn(-c3ccc(Cl)cc3)c2)c(C(=O)O)c1)Nc1ccc(NC(=O)Cc2ccc(-c3ccc(F)cc3)cc2)c(C(=O)O)c1 [Compound 11] | 0.0489 (≈ 0.0404 µg/mL)
12 | O=C(CCCOc1ccc(NS(=O)(=O)c2cnn(-c3ccc(Cl)cc3)c2)c(C(=O)O)c1)Nc1ccc(NC(=O)Cc2cccc(-c3ccc(F)cc3)c2)c(C(=O)O)c1 [Compound 12] | 0.0489 (≈ 0.0404 µg/mL)
13 | O=C(COc1ccc(NS(=O)(=O)c2cnn(-c3ccc(Cl)cc3)c2)c(C(O)O)c1)Nc1ccc(NC(=O)C(=O)NCc2ccc(Cl)cc2)c(C(=O)O)c1 [Compound 13] | 0.0978 (≈ 0.0766 µg/mL)
14 | O=C(Nc1ccc(NS(=O)(=O)c2cnn(-c3ccc(F)cc3)c2)c(C(=O)O)c1)Nc1ccc(NS(=O)(=O)c2cnn(-c3ccc(F)cc3)c2)c(C(=O)O)c1 [Compound 14, 5-(3-(3-carboxy-4-((1-(4-fluorophenyl)-1H-pyrazole)-4-sulfonamido)phenyl)ureido)-2-((1-(4-fluorophenyl)-1H-pyrazole)-4-sulfonamido)benzoic acid] | 3.13 (≈ 2.44 µg/mL)
15 | CCCCc1ccc(S(=O)(=O)Nc2ccc(NC(=O)Nc3ccc(NS(=O)(=O)c4ccc(CCCC)cc4)c(C(=O)O)c3)cc2C(=O)O)cc1 [Compound 15] | 2.21 (≈ 1.6 µg/mL)
16 | O=C(Nc1ccc(NC(=O)C(=O)NCc2ccc(Cl)cc2)c(C(=O)O)c1)Nc1ccc(NC(=O)C(=O)NCc2ccc(Cl)cc2)c(C(=O)O)c1 [Compound 17, 5,5′-(carbonylbis(azanediyl))bis(2-(2-((4-chlorobenzyl)amino)-2-oxoacetamido)benzoic acid)] | 0.0245 (≈ 0.0177 µg/mL)
17 | O=C(Nc1ccc(NC(=O)C(=O)NCCc2ccc(Cl)cc2)c(C(=O)O)c1)Nc1ccc(NC(=O)C(=O)NCCc2ccc(Cl)cc2)c(C(=O)O)c1 [Compound 19] | > 3.13
18 | CCCCc1ccc(S(=O)(=O)Nc2ccc(NC(=O)CCNC(=O)c3ccc(NS(=O)(=O)c4ccc(CCCC)cc4)c(C(=O)O)c3)cc2C(=O)O)cc1 [Compound 20, 2-((4-butylphenyl)sulfonamido)-5-(3-(4-((4-butylphenyl)sulfonamido)-3-carboxy-benzamido)propanamido)benzoic acid] | 0.112 (≈ 0.0872 µg/mL)
19 | CCCCc1ccc(S(=O)(=O)Nc2ccc(NC(=O)CCNC(=O)c3ccc(NS(=O)(=O)c4ccc(CCOC)cc4)c(C(O)O)c3)cc2C(=O)O)cc1 [Compound 21] | 0.782 (≈ 0.612 µg/mL)
20 | CCCCc1ccc(S(=O)(=O)Nc2ccc(NC(=O)C[C@H](C)NC(=O)c3ccc(NS(=O)(=O)c4ccc(CCCC)cc4)c(C(O)O)c3)cc2C(=O)O)cc1 [Compound 22] | 0.782 (≈ 0.622 µg/mL)
21 | O=C(CCNC(=O)c1ccc(NS(=O)(=O)c2cnn(-c3ccc(Cl)cc3)c2)c(C(O)O)c1)Nc1ccc(NS(=O)(=O)c2cnn(-c3ccc(Cl)cc3)c2)c(C(=O)O)c1 [Compound 23] | 0.098 (≈ 0.0852 µg/mL)
